Measurements reported in patent US7775469B2, “Purposeful movement of human migratory cells away from an agent source” (The General Hospital Corporation, priority 1999, dated 2010).

Tests used:
[1] = tested on: T-cell subpopulations moving toward or away from SDF-1α; assay: Inhibitor pretreatment of T-cells in SDF-1α transwell transmigration assay; format: cell-based, human; details: cells pretreated with inhibitor; for effect on chemotaxis to SDF-1α: peak chemotaxis at 100 ng/ml SDF-1α; for effect on fugetaxis from SDF-1α: peak fugetaxis at 1 or 10 μg/ml SDF-1α
Procedure: (§1) Three chemotaxis assays were used in this study. First, quantitative chemotaxis transmigration assays were performed using a transwell system (Corning Inc., NY) (6.5 mm diameter, 5 μm pore size, polycarbonate membrane) as previously described^13. Purified T-cell and thymocyte subpopulations (5×10^4 cells) were added to the upper chamber of each well in a total volume of 150 μl of IMDM alone. […] Cells were pretreated with pertussis toxin (PTX) 100 ng/ml for 1 hour, genistein (1 μg/ml for 20 minutes), herbimycin (1 μM for 20 minutes) or wortmannin (1 μM for 20 minutes) (Sigma Chemical Company, St Louis, Mo.) in a tissue culture incubator at 37° C. and 5% CO2 prior to their addition to the upper chambers of the transwells in selected experiments.
(§2) Transwells prepared in this way were incubated for 3 hours at 37° C., 5% CO2 incubator. Cells were harvested from the lower chamber after 3 hours and cell counts, immunophenotype and CXCR-4 chemokine receptor expression determined.
(§3) Cells were pretreated with anti-CXCR-4 (Pharmingen, San Diego, Calif.) at 20 μg/ml for 30 minutes at room temperature, pertussis toxin (PTX) (100 ng/ml for 1 hour at 37° C.), genistein (1 μg/ml for 20 minutes at 37° C.), herbimycin ([…] for 20 minutes 37° C.), wortmannin (1 μM for 20 minutes at 37° C.), 8-Br-cAMP (100 μM for 15 minutes at room temperature) or 8-Br-cGMP (100 μM for 15 minutes at room temperature) (Sigma Chemical Company, St Louis, Mo.) prior to their addition to the upper chambers of the transwells in selected experiments. Transwells prepared in this way were incubated for 3 hours at 37° C./5% C02 incubator. Cells were harvested from the lower chamber after 3 hours and cell counts performed using a hemocytometer.

CD8+CD45RA+ T-cells = assay: Transwell transmigration assay with recombinant HIV-1IIIB gp120 and inhibitors; format: cell-based, human; details: cells pretreated with inhibitor
Procedure: Purified T-cell and thymocyte subpopulations (5×10^4 cells) were added to the upper chamber of each well in a total volume of 150 μl of IMDM alone.
as §3

Jurkat T-cells = assay: Transwell transmigration of Jurkat T-cells to HepG2CM fractions, with inhibitors; format: cell-based, human; details: Jurkat cells pretreated, 100 μM for 15 minutes
Procedure: The HepG2 cell line (derived from a human hepatocarcinoma-ATCC no:HB-8065, ATCC, Manassas, Va.) was grown to confluency in MEM+10% heat inactivated fetal calf serum+penicillin/streptomycin+L-glutamine. Confluent HepG2 cells were then transferred into serum free medium for 48 hours and the serum free conditioned medium (HepG2CM) was harvested from these cultures. HepG2CM was filtered through a 0.4 μm filter prior to use in transmigration assays or in the Fugetaxin separation system detailed below.
200 ml of HepG2CM were loaded onto a 5-ml HiTrap heparin column (Pharmacia) equilibrated with 10 mM Na phosphate, pH 7. The column was eluted with step increasing concentration of NaCl. […] A cation exchange column, HiTrap Sp Sepharose (Pharmacia), was used as a second step of purification. The active fraction from the Heparin column was dialysized against 50 mM MES, pH6.4 and loaded onto a 1-ml HiTrap Sp column equilibrated with 50 mM MES, pH6.4. The column was then eluted with a linear gradient of NaCl concentration. • 3. […] The active fraction eluted from the HiTrap Sp column in the previous step was then dialysized with 20 mM Tris, pH8.0 and further fractionated using a MonoQ HR5/5 column (Pharmacia). The column was then eluted with a linear gradient of NaCl concentration.
We examined the biology of the fugetactic activity of Fraction 18 with in vitro and in vivo transmigration assay systems. […]

[2] = tested on: adult peripheral blood T-cell subpopulations; assay: Transwell transmigration assay with SDF-1α, adult peripheral blood T-cells; format: cell-based, human; details: for T-cells transmigrating in response to a positive gradient of SDF-1α: SDF-1α 100 ng/ml
Text: Peripheral blood was obtained from 12 healthy donors (age 25-40 years, median age 31). Peripheral blood mononuclear cells (PBMC) were obtained from peripheral blood using Ficoll-Hypaque. PBMC were stained with anti-CD4 (PE), anti-CD8 (PE), anti-CD45RA (FITC), anti-CD45RO (FITC) (Becton-Dickinson, San Jose, Calif.). The CD4^+CD45RA^+, CD4^+CD45RO^+ and CD8^+CD45RA^+ or CD8^+CD45RO^+ subpopulations of peripheral blood cells were sorted using a FACS vantage sorter (Becton-Dickinson, San Jose, Calif.). […] Sorted adult peripheral blood T-cell subpopulations were cultured overnight in serum-free Iscoves modified medium (GIBCO BRL, Gaithersburg, Md.), prior to their use in chemotaxis assays.
as §1, §2

[3] = tested on: adult peripheral blood T-cell subpopulations; assay: Semi-quantitative transmigration assay with tissue culture insert as SDF-1α reservoir; format: cell-based, human
Procedure: The second semi-quantitative transmigration assay involved the use of a tissue culture insert (6.5 mm diameter, 0.45 μm pore size, polycarbonate membrane) (Millipore, Bedford Mass.). Adult peripheral blood T-cell subpopulations (1×10^5 cells) were plated into the wells of a 12-well tissue-culture dish in serum-free Iscove's medium. The tissue-culture plate was then incubated at 37° C. for 1 hour to allow the cells to settle evenly over the base of the well. […] The tissue culture insert was gently placed in the center of the well of the 12-well tissue-culture plate leaving a gap of 0.3 cm between the edge of the insert and the edge of the well of the tissue culture plate. The well with transwell insert was incubated for up to 18 hours at 37° C. on the heated stage of a microscope and viewed by time lapse videomicroscopy recording at 120 frames per hour or by Polaroid still photography. Maintenance of a gradient was assessed by loading of methylene blue into the insert and observing a preserved gradient of color over the incubation period.

[4] = tested on: peripheral T-cell subpopulations; assay: Semi-quantitative migration assay in methylcellulose, time lapse videomicroscopy; format: cell-based, human; details: SDF-1α loaded at fixed position, 10 μg/ml or 100 ng/ml
Procedure: In the third semi-quantitative migration assay, T-cell subpopulations (1×10^5 cells) were mixed with 0.5 ml of 0.5% methylcellulose (Stem Cell Technologies, Vancouver, BC) in sterile medium and plated in a 24 well plate.
[…]
To further validate the process of concentration dependent directional movement, a third transmigration assay was used. […] The movement of a gradient across the methylcellulose was documented in independent experiments by monitoring a dye front through the culture; a process not achieving equilibrium over the duration of our incubations.

[5] = tested on: TN, DP and SP subpopulations of fetal thymocytes; assay: Transwell transmigration of fetal thymocytes to SDF-1α; format: cell-based, human
Text: (§4) Human fetal thymi and peripheral blood samples were obtained from 16 to 22 week abortuses according to Institutional Review Board approved guidelines. Thymi were physically disaggregated and mononuclear cell suspensions generated. Thymocytes were stained with CD8 (FITC), CD3 (PE) and CD4 (APC) and sorted into purified subpopulations of triple negative immature thymocytes (TN) (CD3^−, CD4^−, CD8^−) and mature double positive (DP) (CD4^+CD8^+) and single positive (SP) thymocytes (CD3^+CD4^+ or CD3^+CD8^+) by cell sorting. Fetal blood mononuclear cells (FBMC) were prepared from fetal blood using Ficoll-Hypaque as above. FBMC were labeled with CD8 (FITC), CD3 (PE), CD4 (APC) and anti-CD45RA (FITC). Purified populations of CD4^+CD45RA^+ and CD8^+CD45RA^+ T-cells were sorted cultured overnight in serum free Iscoves modified medium prior to use in chemotaxis assays.
(§5) Three chemotaxis assays were used in this study. First, quantitative chemotaxis transmigration assays were performed using a transwell system (Corning Inc., NY) (6.5 mm diameter, 5 μm pore size, polycarbonate membrane) as previously described^13. […]
as §2

[6] = tested on: CD4+CD45RA+ and CD8+CD45RA+ fetal blood T-cells; assay: Transwell transmigration of fetal blood T-cells to SDF-1α; format: cell-based, human
Text: as §4, §5, §2

C57/B6 mice = assay: T-cell infiltration into the site of a secondary immune response (Ova challenge, peritoneal lavage) after SDF-1; format: in vivo, mouse; details: 24 hours
Procedure: C57/B6 mice (Jackson Laboratories, ME) were obtained and primed subcutaneously with 100 μg chicken ovalbumin (Sigma) containing less than 0.01% LPS by the limulus assay and dissolved in 100 μl of Complete Freund's Adjuvant (CFA) (Sigma). Three days ova-primed mice were challenged by intraperitoneal (IP) injection with 100 μg of ovalbumin (Ova) dissolved in 250 μl of ddH20. […] These mice were then euthanized 24 hours following the second IP injection and peritoneal lavage with 5 mls of PBS performed with direct visualization of the peritoneal sac and its contents in order to avoid peripheral blood contamination. Peritoneal fluid cells harvested in this way contained <0.1% red blood cells. Three groups of control mice were used. In the first, C57/B6 mice were euthanized prior to Ova-priming and a peritoneal lavage performed. The second group of control mice were primed subcutaneously and challenged with Ova intraperitoneally as above and then euthanized 24 hours later. […]
Cells harvested from the peritoneal fluid were counted with a hemocytometer and their viability determined by Trypan blue exclusion and the total viable nucleated cell count per ml of peritoneal fluid was determined. […] The proportion of T-cells of each subpopulation (CD3^+, CD3^+CD4^+, CD3^+CD8^+) was determined as a percentage of the total nucleated cell fraction in the peritoneal fluid. […]

[7] = tested on: adult peripheral blood T-cell subpopulations; details: reported in the literature; cited from earlier work
[8] = tested on: human T-cell subpopulations; assay: Transmigration of human T-cells to KSHV-infected cell supernatants and chemokines; format: cell-based
Text: We examined the chemotactic and fugetactic responses of human T-cell subpopulations and KSHV specific CTL clones to the KSHV proteins vMIP-I and vMIP-II and serum free supernatants from two cell-lines well known in the art that are chronically infected by KSHV and derived from human tumors, lines BCBL-1 and VG-1. BCBL-1 is a B cell line derived from a body cavity-based B lymphoma that is latently infected with HHV-8/KSHV; no EBV DNA is present in this line (Renne, R., W. et al., Nat. Med., 1996, 2:342-346).
FIG. 7: Transmigration of human T-cells to supernatants derived from cell lines which are chronically infected with KSHV (FIG. 7A: BCBL-1, and FIG. 7B:VG-1).
Fugetactic (black bars) and chemotactic (striped bars) migratory responses are shown.

Nc1ncnc2c1nc(Br)n2[C@@H]1O[C@@H]2COP(=O)(O)O[C@H]2[C@H]1O [8-Br-cAMP]
effect on chemotaxis to SDF-1α [1]: not chemotaxis | effect on fugetaxis from SDF-1α [1]: inhibited fugetaxis | effect on movement away from HIV-1IIIB gp120 (CD8+CD45RA+ T-cells): differentially sensitive to inhibition | inhibition of fugetaxis induced by Fraction 18 (Jurkat T-cells): 95%

Nc1nc2c(nc(Br)n2[C@@H]2O[C@@H]3COP(=O)(O)O[C@H]3[C@H]2O)c(=O)[nH]1 [8-Br-cGMP]
inhibition of fugetaxis induced by Fraction 18 (Jurkat T-cells): did not significantly inhibit fugetaxis

O=c1c(-c2ccc(O)cc2)coc2cc(O)cc(O)c12 [genistein]
effect on chemotaxis to SDF-1α [1]: inhibited chemotaxis | effect on fugetaxis from SDF-1α [1]: minimal effect on fugetaxis

CO[C@H]1[C@@H](OC)C[C@H](C)[C@@H](OC)C2=CC(=O)C=C(NC(=O)/C(C)=C/C=C\[C@H](OC)[C@@H](OC(N)=O)/C(C)=C/[C@@H]1C)C2=O [herbimycin]
effect on chemotaxis to SDF-1α [1]: inhibited chemotaxis | effect on fugetaxis from SDF-1α [1]: minimal effect on fugetaxis

SDF-1α
concentration of maximal fugetaxis ([2]; CD4+CD45RA+ cells): 10 µg/mL | T-cells transmigrating in response to a positive gradient of SDF-1α ([2]; CD4+CD45RA+ cells): 85% | T-cells transmigrating in response to a positive gradient of SDF-1α ([2]; CD4+CD45RO+ cells): 79% | T-cells transmigrating in response to a positive gradient of SDF-1α ([2]; CD8+CD45RA+ cells): 97% | T-cells transmigrating in response to a positive gradient of SDF-1α ([2]; CD8+CD45RO+ cells): 51% | concentration of maximal fugetaxis ([2]; CD8+CD45RO+, CD8+CD45RA+ and CD4+CD45RO+ cells): 1 µg/mL | concentration of peak chemoattractant activities ([2]; all four adult T-cell subpopulations): 100 ng/mL | decline of chemotaxis toward SDF-1α ([2]; concentration increased from 100 ng/ml to 10 μg/ml, all cells): ≤ 27 fold | concentration at which agent acts as potent fugetactic agent to immune cells ([2]; mature T cells): higher than 200 ng/ml | direction of T-cell migration relative to insert ([3]; insert contained 10 μg/ml SDF-1α): migrate towards the source of SDF-1α and a second population to migrate away | direction of T-cell migration relative to insert ([3]; insert contained SDF-1α at 100 ng/ml): Only movement toward the insert was seen | direction of T-cell movement in methylcellulose [4]: away from high concentrations of SDF-1α and towards low concentrations | cell movement in response to SDF-1α ([5]; TN, DP, SP fetal thymocytes and fetal blood T-cells): minimal cell movement in response to SDF-1α except in the most immature TN subset | fugetaxis above background chemokinesis ([5]; thymocyte subpopulations, even at 1 μg/ml and 10 μg/ml): In no thymocyte subpopulation was fugetaxis noted above background chemokinesis levels | concentration of maximal chemotactic responses [6]: 100 ng/mL | T cell accumulation at site of Ova challenge (C57/B6 mice; SDF-1 low dose (100 ng/ml) IP, vs sham or PBS): No significant differences | T cell infiltration at site of Ova challenge (C57/B6 mice; high dose SDF-1 (5 μg/ml) IP, p=0.02 vs controls): blunted significantly below that of controls | concentration at which reported as lymphocyte chemoattractant [7]: lower than 100 ng/ml

B1: vMIP-II: KSHV-encoded human chemokine homologue (protein, UniProt Q98157 21-94, looked up)
Viral macrophage inflammatory …: GDTLGASWHRPDKCCLGYQKRPLPQVLLSSWYPTSQLCSKPGVIFLTKRGRQVCADKSKDWVKKLMQQLPVTAR
fugetactic response of T-cells ([8]; 100 ng/ml): not

B2: MIP-1α: human chemokine (protein, UniProt P10147 24-92, looked up)
C-C motif chemokine 3: SLAADTPTACCFSYTSRQIPQNFIADYFETSSQCSKPGVIFLTKRSRQVCADPSEEWVQKYVSDLELSA
chemotactic response of T-cell subsets ([8]; 10 ng/ml): clear chemotactic response
